Assay results published in patent publication US7205433B2, “Crystal of amino acid ester salt and process for producing the same” (Ajinomoto Co., Inc., priority 2002, dated 2007).

Tests used:
Type in all cases: physicochemical
[1] = Experimental Example 5: comparison of hygroscopicity by weight gain over time (60 to 66% RH); conditions: 24 EC
Experimental: The L-Ala-OMe HCl salt, L-Ala-OEt MsOH salt, L-Ala-OEt BsOH salt, L-Ala-OEt 4-CBS salt, L-Ala-OEt 4-EBS salt, L-Ala-OEt 2,4-DMBS salt, and L-Ala-OEt 2,5-DMBS salt were measured in an amount of about 0.3 g each, left standing in a thermostatic chamber at a temperature of 24 EC and a humidity of 60 to 66% RH, and the hygroscopicity was compared based on the weight gain with the lapse of time.

[2] = Experimental Example 2: comparison of hygroscopicity by weight gain over time (62 to 64% RH); conditions: 24° C.
Experimental: In the same manner as in Experimental Example 1, L-Ala-OEt MsOH salt and L-Ala-OMe HCl salt were measured into a glass container in an amount of 0.6 g each, left under conditions of temperature: 24° C., humidity: 62 to 64% RH, and then the hygroscopicity was compared based on the weight gain with the lapse of time.

[3] = Experimental Example 4: comparison of hygroscopicity by weight gain over time (40 to 46% RH); conditions: 24° C.
Experimental: The L-Ala-OEt HCl salt, L-Ala-OEt MsOH salt, L-Ala-OEt BsOH salt, L-Ala-OEt 4-CBS salt, L-Ala-OEt 4-EBS salt, L-Ala-OEt 2,4-DMBS salt, and L-Ala-OEt 2,5-DMBS salt were measured in an amount of about 0.3 g each, left standing in a thermostatic chamber at a temperature of 24° C. and a humidity of 40 to 46% RH, and the hygroscopicity was compared based on the weight gain with the lapse of time. A part of the crystal of the L-Ala-OEt HCl salt was liquefied in 30 minutes, and the liquefied portion increased thereafter with the lapse of time. After 100 minutes, the whole mass became like a sherbet.

[4] = Experimental Example 1: comparison of hygroscopicity by weight gain over time (44 to 45% RH); conditions: 22 to 24° C.
Experimental: L-Ala-OEt HCl salt and L-Ala-OEt MsOH salt were measured into in a glass container in an amount of 1.6 g each, dried in vacuo at 30° C. for 5 hours, left under conditions of temperature: 22 to 24° C., humidity: 44 to 45% RH, and then the hygroscopicity was compared based on the weight gain over the lapse of time. […] The liquefied portion increased with the lapse of time, and the entire salt became liquid 750 minutes later with no observable crystal.

[5] = Comparative Example 9: crystals left standing at room temperature; conditions: left standing at room temperature for a while
Excerpt: The crystals were separated and dried to give L-alanine methyl ester benzenesulfonate (L-Ala-OMe BsOH salt) crystals. The crystals were left standing at room temperature for a while.

With `CCOC(=O)[C@H](C)N.CS(=O)(=O)O` [L-Ala-OEt MsOH salt, L-alanine ethyl ester methanesulfonate] the “weight increase rate (%)” value ([1]; 0 minutes) was 0.00%, the “weight increase rate (%)” value ([1]; 10 minutes) was 0.32% and the “weight increase rate (%)” value ([1]; 20 minutes) was 0.35%. The “weight increase rate (%)” value ([1]; 35 minutes) was 0.38%, the “weight increase rate (%)” value ([1]; 50 minutes) was 0.38% and the “weight increase rate (%)” value ([1]; 65 minutes) was 0.41%. For the same molecule, the “weight increase rate (%)” value ([1]; 80 minutes) was 0.44%, the “weight increase rate (%)” value ([1]; 95 minutes) was 0.44% and the “weight increase rate (%)” value ([1]; 110 minutes) was 0.48%. The “weight increase rate (%)” value ([1]; 125 minutes) was 0.44%, the “weight increase rate (%)” value ([1]; 140 minutes) was 0.48% and the “weight increase rate (%)” value ([1]; 155 minutes) was 0.48%. The “weight increase rate (%)” value ([1]; 170 minutes) was 0.51%, the “weight increase rate (%)” value ([1]; 185 minutes) was 0.48% and the “weight increase rate (%)” value ([1]; 200 minutes) was 0.51%. The “weight increase rate (% relative to initial weight)” value ([2]; 0 minutes) was 0.00%, the “weight increase rate (% relative to initial weight)” value ([2]; 10 minutes) was 0.18% and the “weight increase rate (% relative to initial weight)” value ([2]; 20 minutes) was 0.26%. For the same molecule, the “weight increase rate (% relative to initial weight)” value ([2]; 35 minutes) was 0.39%, the “weight increase rate (% relative to initial weight)” value ([2]; 50 minutes) was 0.53% and the “weight increase rate (% relative to initial weight)” value ([2]; 65 minutes) was 0.55%. For the same molecule, the “weight increase rate (% relative to initial weight)” value ([2]; 80 minutes) was 0.63%, the “weight increase rate (% relative to initial weight)” value ([2]; 95 minutes) was 0.70% and the “weight increase rate (% relative to initial weight)” value ([2]; 110 minutes) was 0.78%. The “weight increase rate (% relative to initial weight)” value ([2]; 125 minutes) was 0.94%, the “weight increase rate (% relative to initial weight)” value ([2]; 140 minutes) was 1.01% and the “weight increase rate (% relative to initial weight)” value ([2]; 155 minutes) was 1.00%. For the same molecule, the “weight increase rate (% relative to initial weight)” value ([2]; 170 minutes) was 1.13%, the “weight increase rate (% relative to initial weight)” value ([2]; 185 minutes) was 1.26% and the “weight increase rate (% relative to initial weight)” value ([2]; 200 minutes) was 1.32%. The “change in weight with the lapse of time” value ([2]; up to 200 minutes) was “not much change in weight”, the liquefaction ([2]; up to 200 minutes) was “liquefaction was not observed” and the “weight increase rate (%)” value ([3]; 0 minutes) was 0.00%. The “weight increase rate (%)” value ([3]; 15 minutes) was 0.03%, the “weight increase rate (%)” value ([3]; 30 minutes) was 0.03% and the “weight increase rate (%)” value ([3]; 45 minutes) was 0.00%. For the same molecule, the “weight increase rate (%)” value ([3]; 60 minutes) was 0.19%, the “weight increase rate (%)” value ([3]; 75 minutes) was 0.35% and the “weight increase rate (%)” value ([3]; 90 minutes) was 0.35%. The “weight increase rate (%)” value ([3]; 120 minutes) was 0.42%, the “weight increase rate (%)” value ([3]; 150 minutes) was 0.39% and the “weight increase rate (%)” value ([3]; 180 minutes) was 0.55%. The “weight increase rate (% relative to initial weight)” value ([4]; 0 minutes) was 0.00%, the “weight increase rate (% relative to initial weight)” value ([4]; 1 minutes) was 0.08% and the “weight increase rate (% relative to initial weight)” value ([4]; 2 minutes) was 0.11%. The “weight increase rate (% relative to initial weight)” value ([4]; 3 minutes) was 0.17%, the “weight increase rate (% relative to initial weight)” value ([4]; 4 minutes) was 0.17% and the “weight increase rate (% relative to initial weight)” value ([4]; 6 minutes) was 0.23%. For the same molecule, the “weight increase rate (% relative to initial weight)” value ([4]; 10 minutes) was 0.36%, the “weight increase rate (% relative to initial weight)” value ([4]; 15 minutes) was 0.41% and the “weight increase rate (% relative to initial weight)” value ([4]; 25 minutes) was 0.48%. For the same molecule, the “weight increase rate (% relative to initial weight)” value ([4]; 35 minutes) was 0.56%, the “weight increase rate (% relative to initial weight)” value ([4]; 50 minutes) was 0.58% and the “weight increase rate (% relative to initial weight)” value ([4]; 60 minutes) was 0.59%. The “weight increase rate (% relative to initial weight)” value ([4]; 75 minutes) was 0.63%, the “weight increase rate (% relative to initial weight)” value ([4]; 90 minutes) was 0.57% and the “weight increase rate (% relative to initial weight)” value ([4]; 120 minutes) was 0.58%. The “weight increase rate (% relative to initial weight)” value ([4]; 150 minutes) was 0.58%, the “weight increase rate (% relative to initial weight)” value ([4]; 180 minutes) was 0.61% and the “weight increase rate (% relative to initial weight)” value ([4]; 750 minutes) was 1.16%. For the same molecule, the “change in weight with the lapse of time” value ([4]; up to 750 minutes) was “almost no change in weight” and the liquefaction ([4]; up to 750 minutes) was “liquefaction was not observed”.

For `COC(=O)[C@H](C)N.O=S(=O)(O)c1ccccc1` [L-Ala-OMe BsOH salt, L-alanine methyl ester benzenesulfonate], the “stability of the crystals” value [5] was “the crystals were liquefied and failed to provide stable crystals”.
